The values below come from patent US6599713B1, “Method for quantitating leukocyte count in whole blood sample” (priority 1999, dated 2003).

In assay [1] the test system is white blood cells contained in a whole blood sample. The assay is described as follows: MPO-releasing effects of various surfactants on whole blood, ELISA (Examples 3 to 5). The class given is cell-based, human. To be noted: Example 3 (Table 3): 500 μl blood + 500 μl 1% (w/v) surfactant solution, 60 minutes on ice, mean ± SD of 3. As to the method:
10 ml of healthy human whole blood was collected using a 28 G winged intravenous injection needle (manufactured and sold by Terumo Corporation, Japan), and immediately mixed with 10 mg of EDTA-2K (manufactured and sold by Dojin Laboratories, Japan), and the resultant EDTA-containing whole blood sample was subjected to the below-described various measurements within 1 hour from the blood collection.
500 μl of the blood was put in a 2-ml Eppendorf tube, and 500 μl of a 1% (w/v) aqueous surfactant solution was added to the tube, and the resultant mixture was stirred for 2 seconds by a Vortex mixer. Subsequently, the mixture was allowed to stand for 60 minutes on ice to thereby lyze the white blood cells. After the lysis of the white blood cells, 100 μl of the mixture was taken out and added to 900 μl of a PBS solution containing dissolved therein 1% BSA (trade name: “Sigma fraction V”, manufactured and sold under the brand of SIGMA™, U.S.A.). The resultant mixture was stirred by a Vortex mixer, and then 10 μl of the mixture was taken out and diluted 2,000-fold with 1% BSA/PBS solution. The resultant diluted mixture was subjected to a measurement by ELISA.
The outline of the ELISA is as follows. A 5 μg/ml PBS solution of an anti-MPO antibody was put into the wells of a Nunc Immuno Plate (manufactured and sold by Nalge Nunc International, Denmark) in an amount of 100 μl per well. The solution in each well was sealed and subjected to a reaction for 18 hours at 4° C. thereby immobilizing the primary antibody. The wells were washed with a washing solution (0.05% Tween™ 20/PBS) and then subjected to blocking for 1 hour at room temperature by using 200 μl of a blocking solution (1% BSA/PBS), and then washed twice with the washing solution. […] The wells were washed 5 times with a washing solution, and 100 μl of a just-prepared TMB solution (manufactured and sold by Kirkegaad & Perry Laboratories, U.S.A.) was added thereto to effect a color reaction. 2 Minutes after the start of the color reaction, 100 μl of a 1 N sulfuric acid solution (manufactured and sold by Nacalai Tesque, Inc., Japan) was added to the wells to thereby terminate the reaction. Then, the absorbance at 450 nm was measured by means of a plate reader (manufactured and sold by Bio-Rad Laboratories, U.S.A.).
With respect to the measurement of the MPO concentration of the sample, MPO (manufactured and sold by Elastin Products Co., INC., U.S.A.) was added to the sample so that the final concentration of the added MPO became 5 ng/ml or 10 ng/ml, and the resultant mixture was measured with respect to the MPO concentration. From the obtained value of MPO concentration, a calibration curve for each sample was obtained. The obtained calibration curve was corrected, based on its relationship with a calibration curve obtained with respect to a standard MPO solution, and the corrected calibration curve of each sample was used to determine the MPO concentration of the whole blood. The measurement was conducted 3 times, and a mean value±standard deviation was obtained.

Assay [2] has as its system white blood cells contained in the whole blood. In words: Concentration of surfactant and release amount of MPO in whole blood, ELISA (Example 2). The assay is classed as cell-based, human. To be noted: 60 minutes on ice, mean ± SD of 3. As for the experimental part: 10 ml of healthy human whole blood was collected and immediately mixed with 10 mg of EDTA-2K (manufactured and sold by Dojin Laboratories, Japan), and the resultant EDTA-containing whole blood sample was subjected to the below-described various measurements within 1 hour from the blood collection.
500 μl of the blood was put in a 2-ml Eppendorf tube, and 500 μl of an aqueous surfactant solution having a surfactant concentration of 0.1, 0.2, 0.4, 0.6, 1, 2, 4, 10 or 20% (w/v) was added to the tube, and the resultant mixture was stirred for 2 seconds by a Vortex mixer. Subsequently, the mixture was allowed to stand for 60 minutes on ice to thereby lyze the white blood cells. […] After the lysis of the white blood cells, 100 μl of the mixture was taken out and added to 900 μl of a PBS solution containing dissolved therein 1% BSA (trade name: “Sigma fraction V”, manufactured and sold under the brand of SIGMA™, U.S.A.). The resultant mixture was stirred by a Vortex mixer, and then 10 μl of the mixture was taken out and diluted 2,000-fold with 1% BSA/PBS solution. The resultant diluted mixture was subjected to a measurement by ELISA.
The outline of the ELISA is as follows. A 5 μg/ml PBS solution of a rabbit anti-human myeloperoxidase antibody (manufactured and sold by Calbiochem-Novabiochem Corporation, U.S.A.)(hereinafter, frequently referred to as “anti-MPO antibody”) was put into the wells of a Nunc Immuno Plate (manufactured and sold by Nalge Nunc International, Denmark) in an amount of 100 μl per well. The solution in each well was sealed and subjected to a reaction for 18 hours at 4° C. thereby immobilizing the primary antibody. The wells were washed with a washing solution (0.05% Tween™ 20/PBS) and then subjected to blocking for 1 hour at room temperature by using 200 μl of a blocking solution (1% BSA/PBS), and then washed twice with the washing solution. Then, the above-obtained diluted mixture (blood sample which had been treated with a surfactant and then diluted) was put in the wells in an amount of 100 μl per well, and subjected to a reaction for 2 hours at room temperature. Then, the wells were washed 3 times with the washing solution, and a 5 μg/ml solution of an anti-MPO antibody labeled with horseradish peroxidase (hereinafter referred to as “HRP”) was put in the wells in an amount of 100 μl per well, and subjected to a reaction for 1 hour at room temperature. As the above-mentioned HRP-labeled anti-MPO antibody, an anti-human MPO antibody (manufactured and sold by Calbiochem-Novabiochem Corporation, U.S.A.) which had been labeled with HRP Grade IV (manufactured and sold under the brand of SIGMA™, U.S.A.) was employed. The labeling was performed by the method described in Analytical Biochemistry, 132, 68-73 (1983). The wells were washed 5 times with the washing solution, and 100 1 μl of a just-prepared TMB solution (manufactured and sold by Kirkegaad & Perry Laboratories, U.S.A.) was added thereto to effect a color reaction. 2 Minutes after the start of the color reaction, 100 μl of a 1 N sulfuric acid solution (manufactured and sold by Nacalai Tesque, Inc., Japan) was added to the wells to thereby terminate the reaction. Then, the absorbance at 450 nm was measured by means of a plate reader (manufactured and sold by Bio-Rad Laboratories, U.S.A.). The measurement was conducted 3 times, and a mean value±standard deviation was obtained.

As to “α-[4-(1,1,3,3,-Tetramethylbutyl)phenyl]-ω-hydroxypoly(oxy-1,2-ethanediyl) [Triton ™ X-100]”, the “MPO concentration of whole blood” value in assay [1] amounted to 6.43 ± 1.25 µg/mL. The “Release amount of MPO in whole blood” value in assay [2] (concentration of surfactant 0.05 % (w/v)) is 0.104 ± 0.005 Abs. 450 nm; in assay [2] (concentration of surfactant 0.10 % (w/v)), 0.161 ± 0.009 Abs. 450 nm; in assay [2] (concentration of surfactant 0.20 % (w/v)) it was 0.202 ± 0.006 Abs. 450 nm; in assay [2] (concentration of surfactant 0.30 % (w/v)), 0.228 ± 0.009 Abs. 450 nm; in assay [2] (concentration of surfactant 0.50 % (w/v)), 0.262 ± 0.005 Abs. 450 nm; in assay [2] (concentration of surfactant 1.00 % (w/v)) it was 0.245 ± 0.011 Abs. 450 nm. The “Release amount of MPO in whole blood” value was 0.216 ± 0.004 Abs. 450 nm in assay [2] (concentration of surfactant 2.00 % (w/v)), 0.228 ± 0.007 Abs. 450 nm in assay [2] (concentration of surfactant 5.00 % (w/v)) and 0.227 ± 0.007 Abs. 450 nm in assay [2] (concentration of surfactant 10.00 % (w/v)).
